Measured values reported in patent US9598463B2, “Mucin hypersecretion inhibitors and methods of use” (BIOMARCK PHARMACEUTICALS, LTD., priority 2005, dated 2017).

Columns and labels:
[1] = system: ATP-induced mucin hypersecretion; assay: Aerosolized Ac-peptide 106 on ATP-induced mucin hypersecretion in mouse model with goblet cell metaplasia; type: in vivo, BALB/c mice; conditions: aerosol
Method: The efficacy of aerosolized Ac-peptide 106 on mucin hypersecretion in a mouse model of asthma was determined at two concentrations. Briefly, 5- to 8 week old BALB/c mice were immunized weekly as described above in Example 1A for 3 weeks with ovalbumin. On Day 28 the mice were challenged with aerosolized 2.5% ovalbumin in normal saline for 30 minutes. Three days after ovalbumin challenge, each group of mice (n=2) was administered an aerosolized isotonic solution of Ac-peptide 106 at […] or 30 mM for 1 hour with an AeroMist CA-209 nebulizer. The mass median aerodynamic diameter of the aerosol particles was 1.49 um (range 0.4 to 4.7 urn). Given these concentrations of Ac-peptide 106 and this particle size, the calculated pulmonary deposition of Ac-peptide 106 was 0.38 mg/kg body weight and 1.1 mg/kg body weight, respectively.
Ac-peptide 106 administration was immediately followed by aerosol administration of the secretagogue adenosine triphosphate (ATP) ([…] in saline) for 5 minutes. The mice were sacrificed, and the lungs were harvested within 20 minutes. The lungs were rinsed with saline, fixed with paraformaldehyde, embedded in paraffin, and sectioned. The sections were quantitatively analyzed for the presence of mucin by quantitative immunohistochemistry according to the method of Evans et al. (Am. J. Respir. Cell Mol. Biol. Vol. 31, pp 382-394, 2004).

HBE1 cells = assay: PMA-induced mucin hypersecretion in human bronchial epithelial cells (air/liquid interface, MUC5A ELISA); type: cell-based; conditions: pretreatment with 25 μM peptide, then 0.5 μM PMA
Method: HBE1 is a papilloma virus-transformed human bronchial epithelial cell line capable of mucin secretion when cultured in air/liquid interface. HBE1 cells were cultured in the air/liquid interface as described previously (Li et al, J. Biol. Chem., volume 276, pp 40982-40990, 2001). Briefly, HBE1 cells were cultured in air/liquid interface by seeding an appropriate number of cells in 12-well Transwell clear culture inserts (Costar, Cambridge, Mass.) that were thinly coated with rat tail collagen, type I (Collaborative Biomedical, Bedford, Mass.). Cells were initially cultured submerged in medium in a humidified 95% air, 5% CO2 environment for 5-7 days until nearly confluent. At that time, the air/liquid interface was created by removing the apical medium and feeding cells basalaterally. Medium was renewed daily thereafter. Cells were cultured for an additional 14 days to allow full differentiation. The accumulated mucin at the apical surface of the cells was removed by washing with phosphate-buffered saline, pH 7.2. To collect the baseline mucin secretion, cells were incubated for 30 min with medium alone and secreted mucin in the apical medium was collected, and quantitated by ELISA. To determine the mucin hypersecretion induced by a mucin secretagogue, cells were exposed to medium containing 0.5 μM phorbol myristate acetate, (PMA) for 30 min. and mucin was collected and quantitated by ELISA. […] Six wells were used for each test peptides and for each control. Secreted mucin in the apical medium was collected and quantitated by sandwich ELISA method using alkaline phosphatase-conjugated mucin (MUC5A) specific antibody (Zymed Laboratories, San Francisco, Calif.).

Ac-GAQFSKTAAK-OH [Ac-peptide 106]
Inhibition of ATP-induced mucin hypersecretion ([1]; calculated pulmonary deposition 0.38 mg/kg body weight): 30% | Inhibition of ATP-induced mucin hypersecretion ([1]; calculated pulmonary deposition 1.1 mg/kg body weight): 67% | Block of PMA-induced increase in mucin secretion (HBE1 cells): 100%
